In patent US10799505B2, “Crystalline form of (S)-N-(5-((R)-2-(2,5-difluorophenyl)-pyrrolidin-1-yl)-pyrazolo[1,5-A]pyrimidin-3-yl)-3-hydroxypyrrolidine-1-carboxamide hydrogen sulfate” (Array BioPharma, Inc., priority 2014, dated 2020):
Structures can show the parent of a compound that is named as a salt.

Experiments:
[1] = test system: xenograph (human) tumor derived from CUTO-3F cell line; test: Xenograft tumor growth in mice, CUTO-3F; type: in vivo; details: CUTO-3F xenograft, 60 or 200 mg/kg daily oral
From the text: (§1) The three different cancer cell lines, the CUTO-3F cell line, the KM12 cell line, and the MO-91 cell line, each express a different Trk gene fusion. […] Following implantation of one of these three different xenograph (human) tumors in mice, the change in the volume of each tumor was monitored.

[2] = Accelerated stability, open vials in LDPE bag, 40° C./75% RH, five weeks; type: physicochemical
Procedure: Upon removal from the chamber, the samples were physically characterized by appearance, KF, TGA, DSC, XRD and PLM. The samples were also analyzed by HPLC for chromatographic purity, chiral integrity and potency. Where applicable, the data presented in the stability portion also includes the original T=0 data for comparison purposes. The data can be seen in Tables 25-29 and FIGS. 40-44.

[3] = test system: TPM3-TRKA, pAKT, and pERK1/2; test: Immunoblot of phosphorylation in KM12 cells; type: cell-based, human; details: low doses, 2 hours
From the text: (§2) Briefly, cells were lysed in RIPA buffer with Halt Protease and Phosphatase Inhibitor Cocktail (Thermo Scientific) and diluted in loading buffer (LI-COR Biosciences). The membranes were scanned and analyzed using the Odyssey Imaging System and software (LI-COR). The following antibodies were used from Cell Signaling: pTRK Y490 (rabbit polyclonal, #9141), pERK1/2 XP T202/Y204 (#9101), total ERK1/2, pAKT S473 (rabbit mAb, #4060), and total AKT mouse clone D3A7 (#2920). TRK (C-14) rabbit polyclonal antibody was purchased from Santa Cruz Biotechnology. GAPDH (MAB374) and pTYR (4G10) are from Millipore.

[4] = test system: MO-91 acute myeloid leukemia cells harboring ETV6-NTRK3 fusion; test: Cell proliferation assay (Cell Titer 96 MTS), MO-91; type: cell-based; details: Homo sapiens, MO-91, 72 h, read-out: IC50, cell proliferation
Procedure: (§3) The KM12 cell line is a colorectal cancer cell line harboring the TPM3-NTRK1 fusion (Vaishnavi et al., Nature Med. 19:1469-1472, 2013). The MO-91 cell line is derived from an acute myeloid leukemia patient harboring the ETV6-NTRK3 fusion (Taipale et al., Nature Biotech. 31:630-637, 2013).
(§4) All proliferation assays were performed in media supplemented with 5% FBS as previously described using Cell Titer 96 MTS (Promega) (Bouhana et al., EORTC-NCI-AACR 26th Symposium on Molecular Targets and Cancer Therapeutics, Barcelona, Spain 2014). Cells were seeded 500-2000 cells/well and treated for 72 hours at the drug concentrations described on each graph. Each assay was performed in triplicate in at least 3 independent biological replicates. Data were plotted and IC50 values calculated using GraphPad software.

[5] = test system: CUTO-3F lung adenocarcinoma cells harboring MPRIP-NTRK1 fusion; test: Cell proliferation assay (Cell Titer 96 MTS), CUTO-3F; type: cell-based; details: Homo sapiens, 72 h, read-out: IC50, cell proliferation
Procedure: as §3, §4

[6] = Phase 1 dose escalation study, pharmacokinetics; type: in vivo, human; details: oral, patients
[7] = test system: xenograph (human) tumor derived from KM12 cell line; test: Xenograft tumor growth in mice, KM12; type: in vivo; details: 60 or 200 mg/kg daily oral
From the text: as §1

[8] = test system: HCC78 cells expressing SLC34A2-ROS1 fusion protein; details: HCC78 cell line
Procedure: as §4

[9] = test system: undifferentiated sarcoma with LMNA-NTRK1 fusion; test: Phase 1 trial, patient with undifferentiated sarcoma (case report); type: in vivo, human; details: one patient
From the text: The patient started cycle 1 day 1 three days later. The patient was seen weekly for pharmacokinetic and safety analysis.

TRKA/B/C = test: Target inhibition judged from unbound drug levels in Phase 1 study; type: in vivo, human; details: all dose levels
[10] = Phase 1 dose escalation study, safety; details: for dose limiting toxicity: one patient
Procedure: In patients with measurable disease, efficacy is assessed per RECIST 1.1 criteria.
Response is measured by RECIST Criteria, version 1.1. Serum is collected for pharmacokinetic analysis on Cycle 1 Day 1 and Day 8. Safety information is collected on all patients and the definition of dose-limiting toxicity applies to adverse events regardless of relationship to investigational product.

[11] = Dynamic vapor sorption (DVS-1 system); type: physicochemical
Procedure: For the DVS measurement a sample of crystalline form (I-HS) was cycled through changing humidity conditions to determine its hygroscopicity. The sample was analyzed using a Surface Measurement System DVS-1 Dynamic Vapor Sorption System. […] Data was collected in 1 minute intervals. Nitrogen was used as the carrier gas. […] After completion of the sorption cycle, the sample was dried using the same procedure, but all the way down to 0% RH and finally taken back to the starting point of 20% RH. The weight change during the sorption/desorption cycles were plotted, allowing for the hygroscopic nature of the sample to be determined.

[12] = test system: xenograph (human) tumor derived from MO-91 cell line; test: Xenograft tumor growth in mice, MO-91; type: in vivo; details: MO-91 xenograft, 60 or 200 mg/kg daily oral
From the text: as §1

[13] = test system: MPRIP-TRKA oncoprotein and ERK1/2; test: Immunoblot of phosphorylation in CUTO-3F cells; type: cell-based, human; details: low doses, 2 hours
From the text: as §2

[14] = Dynamic vapor sorption / humidity exposure (IGAsorp, 25° C.); type: physicochemical; details: for hygroscopicity: DVS, hydrogen sulfate
Procedure: • 1. The hygroscopicity was studied at 25° C. using an IGAsorp analyzer. • 2. About 15 mg of sample was placed in a tared mesh sample holder at an initial ambient room humidity setting of ˜35%. • 3. A total wet/dry nitrogen flow rate of 250 cc/min is used throughout the study. • 4. […] The maximum time allowed at any one humidity set point was 120 min. The sample was maintained under dry N2 after the cycle was completed. Percent weight gain was calculated based on the dry weight basis.

[15] = test system: solid tumors with NTRK gene fusions; test: Phase 1 study, tumor response (RECIST 1.1) in patients with NTRK fusions; type: in vivo, human
Procedure: Three of the 23 patients harbored NTRK-fusions and were treated at either 100 or 150 mg BID.

[16] = test system: TEL-TRKC oncoprotein, pAKT, and pERK1/2; test: Immunoblot of phosphorylation in MO-91 cells; type: cell-based, human; details: low doses, 2 hours
From the text: as §2

TRKA-SHC1 complexes = test: TRK-SHC1 proximity ligation assay in CUTO-3 cells; type: cell-based, human; details: 100 nM, 2 hours, vs DMSO
Procedure: Cells were seeded onto glass coverslips (in a 48 well plate) or chamber slides at 25-75 k cells/well. Cells were treated with the indicated doses and times then fixed for 15 minutes by shaking at room temperature in 4% paraformaldehyde. The cells were rinsed twice in PBS, and then the Duolink® in situ PLA® kit from SigmaAldrich in mouse/rabbit (Red) was used according to the manufacturer's protocol (catalog # DUO92101). The antibody concentrations were optimized using immunofluorescence prior to PLA experiments. The FFPE tissue PLAs from mice or patients were prepared as described in histology. Additionally, samples were treated with 300 mM glycine for 15 minutes prior to the blocking step, otherwise the assay was performed according to the manufacturer's protocol. The cells were mounted using Prolong® gold anti-fade reagent (with DAPI) and cured overnight prior to imaging. […] The following antibodies were used: TRK (C17F1) and ALK (D5F3) from Cell Signaling, SHC1 from Novus, and Grb2 (610111) from BD.

[17] = test system: KM12 colorectal cancer cells harboring TPM3-NTRK1 fusion; test: Cell proliferation assay (Cell Titer 96 MTS), KM12; type: cell-based; details: Homo sapiens, KM12, 72 h, read-out: IC50, cell proliferation
Procedure: as §3, §4

[18] = Stability on aluminum slide at 40° Celsius/75% RH; type: physicochemical; details: I-HS 10 days; HCl after 1 hour; HBr after 2 weeks; mesylate overnight
[19] = 23 patients, 50 mg QD-150 mg BID

O=C(Nc1cnn2ccc(N3CCC[C@@H]3c3cc(F)ccc3F)nc12)N1CC[C@H](O)C1 [crystalline form (I-HS), (S)—N-(5-((R)-2-(2,5-difluorophenyl)-pyrrolidin-1-yl)-pyrazolo[1,5-a]pyrimidin-3-yl)-3-hydroxypyrrolidine-1-carboxamide hydrogen sulfate]
tumor growth (change in volume) [1]: effectively halt the growth, or decrease the rate of growth | Appearance ([2]; 40° C./75% RH, 5 wks): Orange Powder | Assay (HPLC) ([2]; 40° C./75% RH, 5 wks): 79.6% | Chiral Potency (HPLC) ([2]; 40° C./75% RH, 5 wks): 99.6% | KF (water content) ([2]; 40° C./75% RH, 5 wks): 0.21 w/w % | Peak Area Percent, RRT 0.793 ([2]; 40° C./75% RH, 5 wks): 0.07 | Peak Area Percent, RRT 0.863 ([2]; 40° C./75% RH, 5 wks): 0.00 | Peak Area Percent, RRT 0.981 ([2]; 40° C./75% RH, 5 wks): 0.00 | Peak Area Percent, RRT 1.000 ([2]; 40° C./75% RH, 5 wks): 99.93 | Peak Area Percent, RRT 1.535 ([2]; 40° C./75% RH, 5 wks): 0.00 | Total Impurities (HPLC) ([2]; 40° C./75% RH, 5 wks): 0.07% | change of API chemical purity ([2]; 40° C./75% RH, five weeks): did not change significantly | Appearance ([2]; time point 0 wks): Orange Powder | Assay (HPLC) ([2]; time point 0 wks): 79.4% | Chiral Potency (HPLC) ([2]; time point 0 wks): 99.6% | KF (water content) ([2]; time point 0 wks): 0.28 w/w % | Peak Area Percent, RRT 0.793 ([2]; time point 0 wks): 0.07 | Peak Area Percent, RRT 0.863 ([2]; time point 0 wks): 0.00 | Peak Area Percent, RRT 0.981 ([2]; time point 0 wks): 0.00 | Peak Area Percent, RRT 1.000 ([2]; time point 0 wks): 99.86 | Peak Area Percent, RRT 1.535 ([2]; time point 0 wks): 0.07 | Total Impurities (HPLC) ([2]; time point 0 wks): 0.14% | phosphorylation of TPM3-TRKA, pAKT, pERK1/2 [3]: inhibition of the phorphorylation | IC50 [4]: < 0.01 µM | IC50 [5]: < 0.1 µM | exposure versus dose [6]: increased in approximate proportion with dose | time to maximum plasma concentrations following dosing [6]: 30 to 60 min | tumor growth (change in volume) [7]: effectively halt the growth, or decrease the rate of growth | inhibition of cellular proliferation [8]: did not inhibit | response by RECIST 1.1 ([9]; 100 mg twice daily, CT before cycle 2 and cycle 3): partial response | oxygen saturation on room air ([9]; on treatment, baseline 90% with 5 L supplemental oxygen): 97% | CA125 tumor marker levels ([9]; over cycle 1): normalized | inhibition of TRKA/B/C at peak concentrations (TRKA/B/C): approximately 98% | Grade 1 and 2 anemia, frequency ([10]; 23 patients): 22% | Grade 1 and 2 dizziness, frequency ([10]; 23 patients): 26% | Grade 1 and 2 fatigue, frequency ([10]; 23 patients): 35% | MTD [10, 19]: has not been reached | tolerability [10, 19]: well tolerated | dose limiting toxicity ([10]; Dose Level 100 mg BID): delirium, grade 3 unrelated | dose limiting toxicity ([10]; Dose Level 150 mg BID): elevated AST, grade 3 | adverse events attributed to drug ([10]; sarcoma patient, after four months of dosing): did not have any adverse events | drug-related adverse events ([10]; sarcoma patient, first 4-week period): No drug-related adverse events were noted | change in form during DVS (post-DVS XRPD) [11]: no change | hygroscopicity ([11]; DVS isotherm, FIG. 5): non-hygroscopic | DVS (outcome) ([11]; HCl: at 50-60% RH): RH No change | DVS weight gain ([11]; at 80% RH): ~1% gain at 80% | DVS weight gain ([11]; at 95% RH): A 2% gain at 95% | increase in mass during sorption cycle ([11]; between 0% and 90% RH): about 1.7% | tumor growth (change in volume) [12]: effectively halt the growth, or decrease the rate of growth | phosphorylation of MPRIP-TRKA and ERK1/2 [13]: inhibition of phosphorylation | hygroscopicity [14]: non-hygroscopic | hygroscopicity ([14]; listed as Crystalline form (I-HS)): not hygroscopic | mass gained in DVS ([14]; at 80% RH): 1% | response (RECIST 1.1) in three NTRK-fusion patients ([15]; 100 or 150 mg BID): partial response | tumor decrease ([15]; c-kit-negative GIST, ETV6-NTRK3 fusion, 2 cycles+): 30% | tumor decrease ([15]; mammary analogue secretory carcinoma, ETV6-NTRK3 fusion, 2 cycles+): 64% | tumor decrease ([15]; undifferentiated sarcoma, LMNA-NTRK1 fusion, 7 cycles+): 59% | phosphorylation of TEL-TRKC, pAKT, pERK1/2 [16]: inhibition in the phosphorylation | TRKA-SHC1 complexes (PLA signal) (TRKA-SHC1 complexes): disruption of TRKA-SHC1 complexes | IC50 [17]: < 0.01 µM | Stability at 40° Celsius/75% RH (aluminum slide) [18]: No form change
